From patent publication US20090170886A1 (Pfizer Inc, priority 2005, published 2009)
Where a chain is given by its changes, count along the chain named. Where two headings read alike, the source gives them in different places. Each block holds one compound with its values, some of them ahead of it.

Key:
[1] = biological target: T1, hAR (human androgen receptor, baculovirus/Sf9 generated extracts) (Homo sapiens, UniProt P10275); assay: AR Binding Assay (competitive binding with 3H-DHT tracer); details: 1 nM 3H-DHT, one hour at 4° C., mean of multiple tests
T1 construct: made in house; host or cells: baculovirus/Sf9 insect cells (crude extract)
T1 sequence (P10275 1-920): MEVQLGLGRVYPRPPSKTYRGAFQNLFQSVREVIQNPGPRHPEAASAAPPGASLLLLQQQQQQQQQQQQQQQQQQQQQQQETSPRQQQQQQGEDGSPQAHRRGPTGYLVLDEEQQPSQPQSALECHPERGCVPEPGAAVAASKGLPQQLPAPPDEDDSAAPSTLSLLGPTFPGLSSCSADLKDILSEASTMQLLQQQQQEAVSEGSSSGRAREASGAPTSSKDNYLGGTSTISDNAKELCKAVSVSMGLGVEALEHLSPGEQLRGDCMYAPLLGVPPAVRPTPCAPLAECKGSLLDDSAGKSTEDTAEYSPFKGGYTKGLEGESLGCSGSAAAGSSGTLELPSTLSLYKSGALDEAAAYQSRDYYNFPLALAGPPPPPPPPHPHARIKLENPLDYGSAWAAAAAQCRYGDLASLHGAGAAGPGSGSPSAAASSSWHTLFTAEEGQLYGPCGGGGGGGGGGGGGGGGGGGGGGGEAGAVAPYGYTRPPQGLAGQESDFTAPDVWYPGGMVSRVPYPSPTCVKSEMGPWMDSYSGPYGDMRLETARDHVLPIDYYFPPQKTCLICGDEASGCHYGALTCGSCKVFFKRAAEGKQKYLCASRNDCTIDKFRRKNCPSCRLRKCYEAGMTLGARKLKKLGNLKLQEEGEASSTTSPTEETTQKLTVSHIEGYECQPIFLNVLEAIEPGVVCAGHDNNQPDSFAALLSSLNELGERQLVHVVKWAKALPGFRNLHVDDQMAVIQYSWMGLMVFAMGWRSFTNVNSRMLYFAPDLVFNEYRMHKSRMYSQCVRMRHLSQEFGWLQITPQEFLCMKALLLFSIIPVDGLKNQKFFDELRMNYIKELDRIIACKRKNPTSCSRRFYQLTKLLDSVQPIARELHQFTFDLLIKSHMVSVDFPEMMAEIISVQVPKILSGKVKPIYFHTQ
Procedure, shortened: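 Compounds at decreasing concentrations were incubated with baculovirus/Sf9 hAR extract, hydroxylapatite and 1 nM ^3H-DHT for one hour at 4° C., then washed three times. The value is the compound concentration inhibiting half of maximum ^3H-DHT binding, reported as the mean of multiple tests.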

[2] = biological target: T2, androgen receptor in MDA-MB453-MMTV clone 54-19 cells (Homo sapiens, UniProt P10275); assay: AR Antagonist Cell Assay (MMTV-luciferase reporter, DHT-induced); assay type: cell-based; details: MDA-MB453-MMTV clone 54-19, 100 pM DHT, 17 hr; mean of multiple tests
T2 sequence (P10275 1-920 Q868H): T1 sequence (P10275 1-920) with Q868H
Procedure, shortened: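 MDA-MB453 cells stably carrying an ARE-containing MMTV-luciferase reporter, in phenol red-free medium with 1% charcoal-treated serum, preincubated 30 min with compound (0.32-1000 nM), then stimulated with 100 pM DHT for 17 h at 37 °C. Luminescence read; percent inhibition of DHT fold induction.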

[3] = tested on: spinal BMD; details: after 7 years of treatment; cited from earlier work
[4] = hAR extract, read-out: AR Binding IC50

melting point: 73 to 75 °C
IC50 [1, 4]: 783 nM
SMILES: Cc1cccc(COc2ccc(C#N)cc2Cl)c1 [Example 40, 3-Chloro-4-(3-methyl-benzyloxy)-benzonitrile]

SMILES: CCCC(Oc1ccc(C#N)c(C(F)(F)F)c1)c1ccccn1 (stereo not shown) [Example 81, 4-(1-Pyridin-2-yl-butoxy)-2-trifluoromethyl-benzonitrile]
IC50 [2]: 280 nM
IC50 ([1]; AR Binding IC50, hAR extract): 54.3 nM

SMILES: N#Cc1ccc(OC(Cc2ccccc2)c2ccccn2)cc1C(F)(F)F (stereo not shown) [Example 82, 4-(2-Phenyl-1-pyridin-2-yl-ethoxy)-2-trifluoromethyl-benzonitrile]
IC50 [2]: > 1000 nM
IC50 [1, 4]: 238 nM

SMILES: CC(C)CC(Oc1ccc(C#N)c(C(F)(F)F)c1)c1ccccn1 (stereo not shown) [Example 83, 4-(3-Methyl-1-pyridin-2-yl-butoxy)-2-trifluoromethyl-benzonitrile]
IC50 [2]: > 1000 nM
IC50 [1, 4]: 119 nM

SMILES: CCCCC(Oc1ccc(C#N)c(C(F)(F)F)c1)c1ccccn1 (stereo not shown) [Example 84, 4-(1-Pyridin-2-yl-pentyloxy)-2-trifluoromethyl-benzonitrile]
IC50 [2]: > 667 nM
IC50 [1, 4]: 161 nM

SMILES: Cc1cccc(C(CC(C)C)Oc2ccc(C#N)c(C(F)(F)F)c2)n1 (stereo not shown) [Example 85, 4-[3-Methyl-1-(6-methyl-pyridin-2-yl)-butoxy]-2-trifluoromethyl-benzonitrile]
IC50 [2]: > 1000 nM
IC50 [1, 4]: 167 nM

SMILES: CCC(Oc1ccc(C#N)c(C(F)(F)F)c1)c1cccnc1 (stereo not shown) [Example 90, 4-(1-Pyridin-3-yl-propoxy)-2-trifluoromethyl-benzonitrile]
IC50 [2]: 142 nM
IC50 [1, 4]: 167 nM

SMILES: N#Cc1ccc(OC(Cc2ccccc2)c2cccnc2)cc1C(F)(F)F (stereo not shown) [Example 91, 4-(2-Phenyl-1-pyridin-3-yl-ethoxy)-2-trifluoromethyl-benzonitrile]
IC50 [2]: 342 nM
IC50 [1, 4]: 116 nM

SMILES: CCCC(Oc1ccc(C#N)c(C(F)(F)F)c1)c1cncc(OCOCCOC)c1 (stereo not shown) [Example 92]
IC50 [2]: > 934 nM
IC50 ([1]; AR Binding IC50, hAR extract): 74 nM

SMILES: COCCOCOc1cncc(C(CC(C)C)Oc2ccc(C#N)c(C(F)(F)F)c2)c1 (stereo not shown) [Example 93, 4-{1-[5-(2-Methoxy-ethoxymethoxy)-pyridin-3-yl]-3-methyl-butoxy}-2-trifluoromethyl-benzonitrile]
IC50 [2]: 202 nM
IC50 ([1]; AR Binding IC50, hAR extract): 98 nM

SMILES: CCC(Oc1ccc(C#N)c(C(F)(F)F)c1)c1cncc(O)c1 (stereo not shown) [Example 94, 4-[1-(5-Hydroxy-pyridin-3-yl)-propoxy]-2-trifluoromethyl-benzonitrile]
IC50 [2]: 202 nM
IC50 ([1]; AR Binding IC50, hAR extract): 75 nM

SMILES: CCCC(Oc1ccc(C#N)c(C(F)(F)F)c1)c1cncc(O)c1 (stereo not shown) [Example 95, 4-[1-(5-Hydroxy-pyridin-3-yl)-butoxy]-2-trifluoromethyl-benzonitrile]
IC50 [2]: 37 nM
IC50 ([1]; AR Binding IC50, hAR extract): 68 nM

SMILES: NCCCC(O)(P(=O)(O)O)P(=O)(O)O [alendronate]
increase in spinal BMD [3]: ≤ 11%
